Measurements: US20250051732A1, “KIDNEY-ON-A-CHIP COMPRISING RENAL TUBULE CULTURE PART AND INTERSTITIUM CULTURE PART” (Seoul National University Hospital, priority 2021, published 2025)

How the values were obtained:
Assay type in all cases: cell-based, human
[1] = test system: kidney injury molecule-1 (KIM-1); assay: Renal fibrosis-on-a-chip: KIM-1 ELISA of culture solution; conditions: three renal fibrosis-on-chips (patients GFP >90, 60 to 90, <60), TGF-β 5 ng/ml alone or with TGF-β inhibitor 10 μM, 24 hours, FIG. 19
Protocol: An experiment was performed in the same manner as in Experimental Example 2, but enzyme-linked immunosorbent assay (ELISA assay) was performed to examine whether kidney injury molecule-1 (KIM-1) could be used as an evaluation index.
Specifically, renal fibroblasts obtained from each of three patients having GFP >90, GFP 60 to 90, and GFP <60 and purchased vascular endothelial cells (GFP-HUVEC) and renal tubular epithelial cells (HK-2 cells) were co-cultured in the vascular endothelial cell medium in the same manner as in Experimental Example 1 to manufacture three types of kidney-on-chips. Next, the medium was collected for each of the control group, TGF-β group, and TGF-β inhibition group of each of the three types of kidney-on-chips, the medium of each group was diluted at an appropriate ratio, and then ELISA analysis was performed according to the instructions of the KIM-1 (human) ELISA kit (Enzo Life Sciences, Inc, #ADI-900-226-0001). Afterwards, the result values for each group were measured at 450 nm using ELISA READER (SPECTRAMAX PLUS384), each measured result value was compared to the value for the control group of each of the three types of kidney-on-chips to comparatively analyze the difference in expression level of KIM-1, and the results are as illustrated in FIG. 19.

[2] = test system: normal kidney-on-a-chip (renal tubular epithelial cells (HK-2 cells), renal fibroblasts derived from normal kidney tissue, GFP-HUVEC); assay: Normal kidney-on-a-chip, TGF-β stimulation: CCK8 and α-SMA immunofluorescence and blood vessels; conditions: TGF-β 5 ng/ml, 24 hours
Protocol: (§1) Specifically, vascular endothelial cells (GFP-HUVEC) at 2000×10^4/ml and fibrin gel at 10 mg/ml were seeded in the vascular endothelial cell region (yellow region in FIG. 12B, Gel A) of the interstitium culture part of the kidney-on-a-chip manufactured above as 1 in FIG. 12C and cultured at room temperature for 2 to 3 minutes. Next, primary human renal fibroblasts derived from a patient with renal failure at 400×10^4/ml and fibrin gel at 10 mg/ml were seeded in the renal fibroblast region (red region in FIG. 12B, Gel C) of the interstitium culture part of the kidney-on-a-chip manufactured above as 2 in FIG. 12C and cultured at room temperature for 2 to 3 minutes. Afterwards, 5 to 10 μl of the human renal tubular epithelial cell (Human Kidney-2 cell, HK-2 cell) suspension at 300×10^4/ml was seeded in the renal tubule culture part (blue region in FIG. 12B, Gel B) of the kidney-on-a-chip as 3 in FIG. 12C, tilted 90° in the desired direction (upward in this experiment), and cultured at 37° C. for 30 minutes. After culture, each region of the kidney-on-a-chip was filled with 150 μl of the same medium as that in A. of Example 2-2. The renal tubular epithelial cells, vascular endothelial cells, renal fibroblasts and the like were seeded, cultured for 3 days, then treated with TGF-β at 5 ng/ml and TGF-β at 5 ng/ml and a TGF-β inhibitor at 10 μM, respectively, and reacted for 24 hours.
The following immunofluorescence staining was performed to examine whether the kidney-on-a-chip manufactured above normally mimics a living body. Cells in each of the renal tubule culture part and interstitium culture part of the kidney-on-a-chip were fixed with 4% paraformaldehyde fixative (Biosesang, #P2031) at room temperature for 20 minutes, washed with 1×PBS, then treated with 0.2% Triton-X (Sigma, #T9284), and cultured at room temperature for 20 minutes. The cells were then treated with 3% BSA, reacted at room temperature for 40 minutes, and then washed with 1×PBS. […]

[3] = test system: vascular endothelial cells (GFP-HUVEC) in interstitium culture part; assay: Renal fibrosis-on-a-chip: degree of angiogenesis (length and diameter of blood vessels, ImageJ); conditions: 24 hours
Protocol: Through comparative analysis of an organ-on-a-chip mimicking normal kidney tissue and an organ-on-a-chip mimicking renal fibrosis, evaluation indices for screening for renal fibrosis therapeutic agents were deduced in the following manner. At this time, human-derived renal fibroblasts, vascular endothelial cells (GFP-HUVEC), and renal tubular epithelial cells were seeded in the kidney-on-a-chip (FIG. 12A) manufactured in Example 3 in the same manner as in A. of Example 3, and cultured to manufacture a kidney-on-a-chip. However, two types of renal fibroblasts of renal fibroblasts derived from normal kidney tissue (hereinafter referred to as normal kidney-on-a-chip) and renal fibroblasts derived from renal fibrosis kidney tissue (hereinafter referred to as renal fibrosis-on-a-chip) were used as the renal fibroblasts to manufacture two types of kidney-on-chips.
The two types of kidney-on-chips were divided into the control group (control in FIGS. 13A to 13D) in which each of the two types of kidney-on-chips was not treated with TGF-β and the TGF-β group (TGF β in FIGS. 13A to 13D) in which each of the two types of kidney-on-chips was treated with TGF-β unlike Example 3, and immunofluorescence staining was performed in the same manner as in B. of Example 3. At this time, the renal tubular epithelial cells in the renal tubule culture part of each kidney-on-a-chip were treated with CCK8 antibody and α-SMA antibody, respectively, their fluorescence expression was photographed using a confocal microscope (MICROSCOPE CONFOCAL LASER SCANNING ZEISS LSM 710), the mean fluorescence intensity of each image was measured using the analysis program of the confocal microscope, then the result values of CCK8 and α-SMA measured for each group were compared to the values for the control group (control) to comparatively analyze the difference in expression levels, and the results are as illustrated in FIGS. 13A to 13D.
It is more reasonable to compare the kidney-on-a-chip of Example 3 to the pathological tissue of a patient from which kidney cells were obtained rather than comparing the kidney-on-a-chip to a laboratory animal model of renal fibrosis, so the evaluation indices for screening for renal fibrosis therapeutic agents were deduced by manufacturing a kidney-on-a-chip and performing comparative analysis in the same manner as in Experimental Example 1. […] In this experiment, three types of kidney-on-chips were manufactured: the control group (control in FIGS. 15 to 20) not treated with TGF-β, the TGF-β group (TGF β in FIGS. 15 to 20) treated with TGF-β in Experimental Example 1, and a TGF-β inhibition group (TGF β inhibitor in FIGS. 15 to 20) that was treated with TGF-β at 5 ng/ml and a TGF-β inhibitor at 10 μM and reacted for 24 hours.
For the three types of kidney-on-chips of the control group, the TGF-β group, and the TGF-β inhibition group, vascular endothelial cells (GFP-HUVEC) present in the vascular endothelial cell region of the interstitium culture part were photographed using a confocal microscope (MICROSCOPE CONFOCAL LASER SCANNING ZEISS LSM 710). […] The result values measured for each of the control group, TGF-β group, and TGF-β inhibition group were compared to the values for the control group according to each index to comparatively analyze the length and diameter of thin blood vessels and the length and diameter of thick blood vessels, and the results are as illustrated in FIGS. 17 to 18.

[4] = test system: vascular endothelial growth factor (VEGF); assay: Renal fibrosis-on-a-chip: VEGF real-time PCR; conditions: two renal fibrosis-on-chips (patients GFP >90, 60 to 90), TGF-β 5 ng/ml alone or with TGF-β inhibitor 10 μM, 24 hours, FIG. 20
Protocol: An experiment was performed in the same manner as in Experimental Example 3-1, but real-time PCR was performed to examine whether the vascular endothelial growth factor (VEGF) can be used as an evaluation index.
Specifically, for each of the control group, TGF-β group, and TGF-β inhibition group of each of the two types of kidney-on-chips manufactured from a patient with GFP >90 and a patient with GFP 60 to 90 in Experimental Example 3-1, RNA was isolated from all of the renal tubular epithelial cells (HK-2 cells), fibroblasts, and vascular endothelial cells (GFP-HUVEC) co-cultured in each kidney-on-a-chip, cDNA was synthesized from this according to a method known in the art and mixed with VEGF primers and SYBER green, and the expression level of VEGF was measured using real-time PCR equipment (REAL TIME PCR SYSTEM, Applied Biosystems ViiA7). After measurement, the result values for each group measured using the equipment were compared to the values for the control group of each of the […] of kidney-on-chips to comparatively analyze the difference in expression level of VEGF, and the results are as illustrated in FIG. 20.

[5] = test system: renal tubular epithelial cells (HK-2 cells) in renal fibrosis-on-a-chip; assay: Renal fibrosis-on-a-chip: CCK8 and α-SMA immunofluorescence in renal tubule culture part; conditions: 24 hours
Protocol: as §1
The following immunofluorescence staining was performed to examine whether the kidney-on-a-chip manufactured above normally mimics a living body. Cells in each of the renal tubule culture part and interstitium culture part of the kidney-on-a-chip were fixed with 4% paraformaldehyde fixative (Biosesang, #P2031) at room temperature for 20 minutes, washed with 1×PBS, then treated with 0.2% Triton-X (Sigma, #T9284), and cultured at room temperature for 20 minutes. The cells were then treated with 3% BSA, reacted at room temperature for 40 minutes, and then washed with 1×PBS. Next, the cells were treated with primary antibodies (α-SMA antibody (diluted at 1:100) for renal fibroblasts and cytokeratin 8 (CCK8) antibody (diluted at 1:200) for renal tubular epithelial cells) diluted with 1% BSA, reacted at room temperature for 2 days, and washed again with 1×PBS. After washing, the cells were treated with secondary antibodies against each marker diluted with 1% BSA at 1:100 and the antibody Hoechst diluted with 1% BSA at 1:250, reacted at room temperature for 3 hours, washed again with 1×PBS, and then photographed using a confocal microscope, and the results are illustrated in FIG. 12D. […]

[6] = renal tubular epithelial cell region, vs control, FIG. 13A, 13B
[7] = renal fibrosis-on-a-chip (Experimental Example 1), renal tubular epithelial cell region, TGF-β 5 ng/ml, vs control, FIG. 13C, 13D
[8] = three renal fibrosis-on-chips (patients GFR >90, 60-90, <60), TGF-β 5 ng/ml alone or with TGF-β inhibitor 10 μM, FIG. 15, 16

transforming growth factor-β [TGF-β]
expression level of KIM-1 in the culture solution [1]: increased
expression level of CCK8 [2, 6]: decreased
expression level of α-SMA [2, 6]: increased
number of thin blood vessels ([2]; vascular endothelial cell region of interstitium culture part): increased
number of thin blood vessels ([3]; renal fibrosis-on-a-chip (Experimental Example 1), vascular endothelial cell region, TGF-β 5 ng/ml): increased
total length of thick blood vessels (50 μm or more) ([3]; three renal fibrosis-on-chips, TGF-β 5 ng/ml alone or with TGF-β inhibitor 10 μM, FIG. 17A): decreased
diameter of thick blood vessels ([3]; three renal fibrosis-on-chips, TGF-β 5 ng/ml alone or with TGF-β inhibitor 10 μM, FIG. 17B): decreased
total length of thin blood vessels (less than 50 μm) ([3]; three renal fibrosis-on-chips, TGF-β 5 ng/ml alone or with TGF-β inhibitor 10 μM, FIG. 18A): increased
diameter of thin blood vessels ([3]; three renal fibrosis-on-chips, TGF-β 5 ng/ml alone or with TGF-β inhibitor 10 μM, FIG. 18B): decreased
expression level of VEGF [4]: increased
expression level of CCK8 [5, 7]: decreased
expression level of α-SMA [5, 7]: increased
expression level of CCK8 [5, 8]: decreased
expression level of α-SMA [5, 8]: increased
